Laboratory results published in patent US6642386B2, “N-(4-carbamimidoyl-phenyl)-glycine derivatives” (Hoffmann-La Roche Inc., priority 2002, dated 2003).
Values after ≈ are worked out from the molar mass of the structure shown. Like-named read-outs stand apart in the source and are kept apart here.

How the values were obtained:
[1] = Solubility (phosphate buffer); type: physicochemical
human plasma = test: prothrombin time (PT) clotting test; type: biochemical; details: inhibitor concentration which brought about a doubling of the PT clotting time, Innovin (recombinant human tissue factor)
Method: The activity of the low molecular weight substances can, moreover, be characterized in the “prothrombi” time” (PT) clotting test. The substances are prepared as a 10 mM solution in DMSO or DMSO/0.1M HCl (DHCl) and thereafter made up to the desired dilution in the same solvent. Thereafter, 0.25 ml of human plasma (obtained from whole blood anticoagulated with 1/10 volume of 108 mM Na citrate) was placed in the instrument-specific sample container. In each case 5 μl of each dilution of the substance-dilution series was then mixed with the plasma provided. This plasma/inhibitor mixture was incubated at 37° C. for 2 minutes. Thereafter, there were pipetted to the semi-automatic device (ACL, Automated Coagulation Laboratory (Instrument Laboratory)) 50 μl of plasma/inhibitor mixture in the measurement container. The clotting reaction was initiated by the addition of 0.1 ml of Innovin® (recombinant human tissue factor combined with calcium buffer and synthetic phospholipids(Dade Behring®, Inc.). The time up to the fibrin cross-linking was determined photooptically from the ACL. The inhibitor concentration, which brought about a doubling of the PT clotting time, was determined by means of a graph.

solubility ([1]; pH 6.5, aqueous buffer, read-out: Solubility (phosphate buffer, pH 6.5))	melting point	solubility ([1]; aqueous buffer, pH 5 (stated in the cell), read-out: Solubility (phosphate buffer, pH 5))	Solubility (phosphate buffer, pH 6.5) ([1]; pH 6.5)	Structure (SMILES)	concentration doubling PT clotting time (human plasma)
5700 µg/mL (≈ 12.8 mM)	–	–	–	CCOc1cc(OC2CCN(C)CC2)c(F)c([C@@H](Nc2ccc(C(=N)N)cc2)C(=O)O)c1 [Example 13.8, (R)-(4-carbamimidoyl-phenylamino)-[5-ethoxy-2-fluoro-3-(1-methyl-piperidin-4-yloxy)-phenyl]-acetic acid]	1.6 µM
–	232 °C	–	–	CCOc1cc(OCC2CCN(C)CC2)c(F)c(C(Nc2ccc(C(=N)N)cc2)C(=O)O)c1 (racemic) [Example 6.3, (RS)-(4-carbamimidoyl-phenylamino)-[5-ethoxy-2-fluoro-3-(1-methyl-piperidin-4-ylmethoxy)-phenyl]-acetic acid]	–
–	–	3300 µg/mL (≈ 7.42 mM)	–	CCOc1cc(OC2CCN(C)CC2)c(F)c(C(Nc2ccc(C(=N)N)cc2)C(=O)O)c1 (racemic) [Example 13.3, (RS)-(4-carbamimidoyl-phenylamino)-[5-ethoxy-2-fluoro-3-(1-methyl-piperidin-4-yloxy)-phenyl]-acetic acid]	3.6 µM
–	–	–	2.2 mg/ml	CCOc1cc(O[C@@H]2CCCN(C)C2)c(F)c([C@@H](Nc2ccc(C(=N)N)cc2)C(=O)O)c1 (racemic) [Example 2.3, (RS)- and (SR)-(4-carbamimidoyl-phenylamino)-[5-ethoxy-2-fluoro-3-[(RS)-1-methyl-piperidin-3-yloxy]-phenyl]-acetic acid]	2.1 µM
